Tested on: TPM3-NTRK1-wt IC50 / primary target (e.g. CD74-ROS1-wt) IC50, Ba/F3 cells
Test: Cell assay TRKA selectivity (TRKA potency divided by primary target potency)
Type: cell-based
Settings: for TPM3-NTRK1-wt/CD74-ROS1-G2032R: TRKA selectivity ratio: TPM3-NTRK1-wt IC50 / CD74-ROS1-G2032R IC50, Ba/F3 cells; for TPM3-NTRK1-wt/EML4-ALK-L1196M-G1202R: TRKA selectivity ratio: TPM3-NTRK1-wt IC50 / EML4-ALK-L1196M-G1202R IC50, Ba/F3 cells; for TPM3-NTRK1-wt/CD74-ROS1-wt: TRKA selectivity ratio: TPM3-NTRK1-wt IC50 / CD74-ROS1-wt IC50, Ba/F3 cells; for TPM3-NTRK1-wt/EML4-ALK-wt: TRKA selectivity ratio: TPM3-NTRK1-wt IC50 / EML4-ALK-wt IC50, Ba/F3 cells
Method in brief: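 Ratio of TRKA to primary-target cellular IC50 (e.g. TPM3-NTRK1-wt/CD74-ROS1-wt), grouped into bins A >30, B >10, C ≥1, D <1. Each IC50 came from engineered Ba/F3 fusion lines grown without IL-3, dosed for 72 h and read as CellTiter-Glo luminescence, with a four-parameter logistic fit.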

| SMILES | TPM3-NTRK1-wt/CD74-ROS1-G2032R | TPM3-NTRK1-wt/EML4-ALK-L1196M-G1202R | TPM3-NTRK1-wt/CD74-ROS1-wt | TPM3-NTRK1-wt/EML4-ALK-wt |
| --- | --- | --- | --- | --- |
| CCn1nc(Cl)c2c1-c1cnc(N)c(c1)O[C@H](C)c1cc(F)cnc1-c1nn(C)cc1C2 [Example 142, (19R)-5-chloro-3-ethyl-16-fluoro-10,19-dimethyl-20-oxa-3,4,10,11,14,23-hexaazapentacyclo[19.3.1.0^2,^6.0^8,^12.0^13,^18]pentacosa-1(24),2(6),4,8,11,13,15,17,21(25),22-decaen-22-amine] | A (bin A for very high selectivity, ratio>30-fold) | B (bin B for high selectivity, ratio>10-fold) |  |  |
| Cc1nc2c(s1)Cn1ncc(C#N)c1-c1cnc(N)c(c1)O[C@H](C)c1cc(F)ccc1-2 [Example 67, (19R)-22-amino-16-fluoro-10,19-dimethyl-20-oxa-9-thia-5,6,11,23-tetraazapentacyclo[19.3.1.0^2,^6.0^8,^12.0^13,^18]pentacosa-1(24),2,4,8(12),10,13,15,17,21(25),22-decaene-3-carbonitrile] | A (bin A for very high selectivity, ratio>30-fold) | C (bin C for moderate selectivity, ratio≥1) | A (bin A for very high selectivity, ratio>30-fold) | A (bin A for very high selectivity, ratio>30-fold) |
| C[C@H]1Oc2cc(cnc2N)-c2c(CC(F)F)nn(C)c2Cc2cn(C)nc2-c2ccc(F)cc21 [Example 172, (19R)-3-(2,2-difluoroethyl)-16-fluoro-5,10,19-trimethyl-20-oxa-4,5,10,11,23-pentaazapentacyclo[19.3.1.0^2,^6.0^8,^12.0^13,^18]pentacosa-1(24),2(6),3,8,11,13,15,17,21(25),22-decaen-22-amine] | A (bin A for very high selectivity, ratio>30-fold) | A (bin A for very high selectivity, ratio>30-fold) | A (bin A for very high selectivity, ratio>30-fold) | A (bin A for very high selectivity, ratio>30-fold) |
| CCn1ncc2c1-c1cnc(N)c(c1)OCc1cc(F)ccc1-c1ncccc1C2 [Example 8, 3-ethyl-17-fluoro-21-oxa-3,4,12,24-tetraazapentacyclo[20.3.1.0^2,^6.0^8,^13.0^14,^19]hexacosa-1(25),2(6),4,8(13),9,11,14,16,18,22(26),23-undecaen-23-amine] | A (bin A for very high selectivity, ratio>30-fold) | B (bin B for high selectivity, ratio>10-fold) | A (bin A for very high selectivity, ratio>30-fold) | A (bin A for very high selectivity, ratio>30-fold) |
| Cc1cc2n(n1)-c1ccc(F)cc1[C@@H](C)Oc1cc(cnc1N)-c1c(c(C)nn1CC1CC1)C2 [Example 141, (19R)-3-(cyclopropylmethyl)-16-fluoro-5,10,19-trimethyl-20-oxa-3,4,11,12,23-pentaazapentacyclo[19.3.1.0^2,^6.0^8,^12.0^13,^18]pentacosa-1(24),2(6),4,8,10,13,15,17,21(25),22-decaen-22-amine] | A (bin A for very high selectivity, ratio>30-fold) | A (bin A for very high selectivity, ratio>30-fold) | A (bin A for very high selectivity, ratio>30-fold) | A (bin A for very high selectivity, ratio>30-fold) |
| CCn1ncc2c1-c1cnc(N)c(c1)O[C@H](C)c1cc(F)ccc1-n1ncc(C#N)c1C2 [Example 47, (19R)-22-amino-3-ethyl-16-fluoro-19-methyl-20-oxa-3,4,11,12,23-pentaazapentacyclo[19.3.1.0^2,^6.0^8,^12.0^13,^18]pentacosa-1(24),2(6),4,8,10,13,15,17,21(25),22-decaene-9-carbonitrile] | A (bin A for very high selectivity, ratio>30-fold) | C (bin C for moderate selectivity, ratio≥1) | A (bin A for very high selectivity, ratio>30-fold) | B (bin B for high selectivity, ratio>10-fold) |
| CCn1ncc2c1-c1cnc(N)c(c1)O[C@H](C)c1cc(F)ccc1-c1nn(C)c(Cl)c1C2 [Example 28, (19R)-9-chloro-3-ethyl-16-fluoro-10,19-dimethyl-20-oxa-3,4,10,11,23-pentaazapentacyclo[19.3.1.0^2,^6.0^8,^12.0^13,^18]pentacosa-1(24),2(6),4,8,11,13,15,17,21(25),22-decaen-22-amine] | A (bin A for very high selectivity, ratio>30-fold) | C (bin C for moderate selectivity, ratio≥1) | A (bin A for very high selectivity, ratio>30-fold) | A (bin A for very high selectivity, ratio>30-fold) |
| COc1cc2n(n1)-c1ccc(F)cc1[C@@H](C)Oc1cc(cnc1N)-c1c(c(C)nn1CC1CC1)C2 [Example 124, (19R)-3-(cyclopropylmethyl)-16-fluoro-10-methoxy-5,19-dimethyl-20-oxa-3,4,11,12,23-pentaazapentacyclo[19.3.1.0^2,^6.0^8,^12.0^13,^18]pentacosa-1(24),2(6),4,8,10,13,15,17,21(25),22-decaen-22-amine] | A (bin A for very high selectivity, ratio>30-fold) | A (bin A for very high selectivity, ratio>30-fold) | A (bin A for very high selectivity, ratio>30-fold) | A (bin A for very high selectivity, ratio>30-fold) |
| CC1Oc2cc(cnc2N)-c2c(cnn2C(F)F)Cn2ccnc2-c2ccc(F)cc21 (stereo not drawn) [Example 44, 3-(difluoromethyl)-16-fluoro-19-methyl-20-oxa-3,4,8,11,23-pentaazapentacyclo[19.3.1.0^2,^6.0^8,^12.0^13,^18]pentacosa-1(24),2(6),4,9,11,13,15,17,21(25),22-decaen-22-amine] | A (bin A for very high selectivity, ratio>30-fold) | C (bin C for moderate selectivity, ratio≥1) | A (bin A for very high selectivity, ratio>30-fold) | A (bin A for very high selectivity, ratio>30-fold) |
| CCn1ncc2c1-c1cnc(N)c(c1)O[C@H](C)c1cc(F)ccc1-n1nc(Br)cc1C2 [Example 80, (19R)-10-bromo-3-ethyl-16-fluoro-19-methyl-20-oxa-3,4,11,12,23-pentaazapentacyclo[19.3.1.0^2,^6.0^8,^12.0^13,^18]pentacosa-1(24),2(6),4,8,10,13,15,17,21(25),22-decaen-22-amine] | A (bin A for very high selectivity, ratio>30-fold) | B (bin B for high selectivity, ratio>10-fold) | A (bin A for very high selectivity, ratio>30-fold) | A (bin A for very high selectivity, ratio>30-fold) |
| Cc1nn(CC2CC2)c2c1Cc1cc(C(F)F)nn1-c1ccc(F)cc1COc1cc-2cnc1N [Example 136, 3-(cyclopropylmethyl)-10-(difluoromethyl)-16-fluoro-5-methyl-20-oxa-3,4,11,12,23-pentaazapentacyclo[19.3.1.0^2,^6.0^8,^12.0^13,^18]pentacosa-1(24),2(6),4,8,10,13,15,17,21(25),22-decaen-22-amine] | A (bin A for very high selectivity, ratio>30-fold) | A (bin A for very high selectivity, ratio>30-fold) | A (bin A for very high selectivity, ratio>30-fold) | A (bin A for very high selectivity, ratio>30-fold) |
| Nc1ncc2cc1OCc1cc(F)ccc1-n1nc(C(F)F)cc1Cc1cnn(CC3CC3)c1-2 [Example 138, 3-(cyclopropylmethyl)-10-(difluoromethyl)-16-fluoro-20-oxa-3,4,11,12,23-pentaazapentacyclo[19.3.1.0^2,^6.0^8,^12.0^13,^18]pentacosa-1(24),2(6),4,8,10,13,15,17,21(25),22-decaen-22-amine] | A (bin A for very high selectivity, ratio>30-fold) | A (bin A for very high selectivity, ratio>30-fold) | A (bin A for very high selectivity, ratio>30-fold) | A (bin A for very high selectivity, ratio>30-fold) |
| CCn1nnc2c1-c1cnc(N)c(c1)O[C@H](C)c1cc(F)ccc1-c1nscc1C2 [Example 95, (19R)-3-ethyl-16-fluoro-19-methyl-20-oxa-10-thia-3,4,5,11,23-pentaazapentacyclo[19.3.1.0^2,^6.0^8,^12.0^13,^18]pentacosa-1(24),2(6),4,8,11,13,15,17,21(25),22-decaen-22-amine] | A (bin A for very high selectivity, ratio>30-fold) | C (bin C for moderate selectivity, ratio≥1) | A (bin A for very high selectivity, ratio>30-fold) | A (bin A for very high selectivity, ratio>30-fold) |
| CCn1nc(C)c2c1-c1cnc(N)c(c1)O[C@H](C)c1cc(F)ccc1-c1nn(C)cc1C2 [Example 81, (19R)-3-ethyl-16-fluoro-5,10,19-trimethyl-20-oxa-3,4,10,11,23-pentaazapentacyclo[19.3.1.0^2,^6.0^8,^12.0^13,^18]pentacosa-1(24),2(6),4,8,11,13,15,17,21(25),22-decaen-22-amine] | A (bin A for very high selectivity, ratio>30-fold) | B (bin B for high selectivity, ratio>10-fold) | A (bin A for very high selectivity, ratio>30-fold) | A (bin A for very high selectivity, ratio>30-fold) |
